According to patent publication US10131702B2, “Glucagon-GLP-1-GIP triple agonist compounds” (priority 2013, dated 2018):
pEC50: −log10 of the molar value. Read-outs that look alike come from different tables or passages of the source. Numbered stars: 1 amine (or outer) side, 2 acyl side, 3 side chain; on linkers, the order of the positions; unused ones are H or OH. Square brackets hold non-standard residues; d marks the D form. Side chains are listed from the residue outwards. Peptide text beside a SMILES is read from it. * marks the point of attachment. γGlu = O=C(O)[C@H](CCC(=O)[*:2])N[*:1]; Stearoyl = CCCCCCCCCCCCCCCCCC(=O)*; AEEA = NCCOCCOCC(=O)O; Aib = CC(C)(N)C(=O)O

How the values were obtained:
Type in all cases: cell-based
human GLP-1 R = target: T1, human GLP-1 R (Homo sapiens, UniProt P43220); assay: cAMP induction in HEK293 cells expressing human GLP-1 R (AlphaScreen cAMP kit); details: for EC50: average EC50, cAMP, HEK293 cells expressing human GLP-1 R, read-out: GLP1 R (EC50 in nM)
T1 construct: expressed in transfected cells
Method: (§1) Briefly, HEK293 cells expressing the human GIP R, GLP-1 R or GCG R (stable cell lines generated through transfection of the cDNA for human GIP R, GLP-1 R or GCG R and selection of stable clones) were seeded at 30,000 cells/well in 96-well microtiter plates coated with 0.01% poly-L-lysine, and grown for 1 day in culture in 200 μl growth medium (DMEM, 10% FCS, Penicillin (100 IU/ml), Streptomycin (100 μg/ml)). On the day of analysis, growth medium was removed and the cells were washed once with 150 μl Tyrode's buffer (Tyrode's Salts (9.6 g/l), 10 mM HEPES, pH 7.4). […] The Assay buffer was removed and cells are lysed in 80 μl Lysis buffer (0.1% w/v BSA, 5 mM HEPES, 0.3% v/v Tween-20) per well. From each well 10 μl of lysed cells were transferred to a 384-well plate and mixed with 15 μl bead-mix (1 Unit/15 μl anti-cAMP Acceptor Beads, 1 Unit/15 μl Donor Beads, and 1 Unit/15 μl Biotinylated cAMP in Assay Buffer). The plates were mixed and incubated in the dark for an hour at room temperature before measuring using an Envision™ plate reader (Perkin-Elmer).
(§2) The resulting cAMP curves were plotted as absolute cAMP concentrations (nM) over log (test compound concentration) and analyzed using the curve fitting program XLfit.
(§3) Parameters calculated to describe both the potency as well as the agonistic activity of each test compound on the receptors were:
(§4) EC50, a concentration resulting in a half-maximal elevation of cAMP levels, reflecting the potency of the test compound.

human GCG R = target: T2, human GCG R (Homo sapiens, UniProt P47871); assay: cAMP induction in HEK293 cells expressing human GCG R (AlphaScreen cAMP kit); details: for EC50: average EC50, cAMP, HEK293 cells expressing human GCG R, read-out: GCG R (EC50 in nM)
T2 construct: expressed in transfected cells
Method: as §1, §2, §3, §4

human GIP R = target: T3, human GIP R (Homo sapiens, UniProt P48546); assay: cAMP induction in HEK293 cells expressing human GIP R (AlphaScreen cAMP kit)
T3 construct: expressed in transfected cells
T3 sequence (P48546 22-466): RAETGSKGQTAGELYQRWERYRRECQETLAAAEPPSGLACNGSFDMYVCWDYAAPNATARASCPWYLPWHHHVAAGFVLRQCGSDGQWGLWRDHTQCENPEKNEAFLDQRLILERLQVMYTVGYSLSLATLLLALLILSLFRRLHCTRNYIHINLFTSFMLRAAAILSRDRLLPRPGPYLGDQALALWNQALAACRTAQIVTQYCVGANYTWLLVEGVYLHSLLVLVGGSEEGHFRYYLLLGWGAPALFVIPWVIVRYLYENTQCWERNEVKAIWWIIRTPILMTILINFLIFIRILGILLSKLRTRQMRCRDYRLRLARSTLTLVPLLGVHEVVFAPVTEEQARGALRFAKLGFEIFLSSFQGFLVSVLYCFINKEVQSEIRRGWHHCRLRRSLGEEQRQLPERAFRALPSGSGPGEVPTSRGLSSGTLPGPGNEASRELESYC
Method: as §1, §2, §3, §4

[1] = Table 2, average EC50, cAMP, read-out: GIP R (EC50 in nM)
[2] = Table 2b (most comprehensive data), average EC50, cAMP, read-out: GIP R (EC50 in nM)
[3] = Table 2b (most comprehensive data)
[4] = GIP R (EC50 in nM), Table 2, average EC50, cAMP
[5] = GIP R (EC50 in nM), Table 2b (most comprehensive data), average EC50, cAMP

T2 sequence (P47871 26-477): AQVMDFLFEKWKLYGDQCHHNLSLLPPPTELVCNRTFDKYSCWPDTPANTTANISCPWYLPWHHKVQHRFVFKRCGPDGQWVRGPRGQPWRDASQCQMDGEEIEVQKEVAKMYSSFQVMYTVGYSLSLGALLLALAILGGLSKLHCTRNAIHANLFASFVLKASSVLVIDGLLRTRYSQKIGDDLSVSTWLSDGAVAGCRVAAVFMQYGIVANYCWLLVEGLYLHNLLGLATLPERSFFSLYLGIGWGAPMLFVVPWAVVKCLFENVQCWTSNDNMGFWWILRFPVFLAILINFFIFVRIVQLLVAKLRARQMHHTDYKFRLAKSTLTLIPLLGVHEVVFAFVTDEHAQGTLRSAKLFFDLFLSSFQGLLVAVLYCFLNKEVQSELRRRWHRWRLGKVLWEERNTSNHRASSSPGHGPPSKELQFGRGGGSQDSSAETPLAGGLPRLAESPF
T1 sequence (P43220 24-463): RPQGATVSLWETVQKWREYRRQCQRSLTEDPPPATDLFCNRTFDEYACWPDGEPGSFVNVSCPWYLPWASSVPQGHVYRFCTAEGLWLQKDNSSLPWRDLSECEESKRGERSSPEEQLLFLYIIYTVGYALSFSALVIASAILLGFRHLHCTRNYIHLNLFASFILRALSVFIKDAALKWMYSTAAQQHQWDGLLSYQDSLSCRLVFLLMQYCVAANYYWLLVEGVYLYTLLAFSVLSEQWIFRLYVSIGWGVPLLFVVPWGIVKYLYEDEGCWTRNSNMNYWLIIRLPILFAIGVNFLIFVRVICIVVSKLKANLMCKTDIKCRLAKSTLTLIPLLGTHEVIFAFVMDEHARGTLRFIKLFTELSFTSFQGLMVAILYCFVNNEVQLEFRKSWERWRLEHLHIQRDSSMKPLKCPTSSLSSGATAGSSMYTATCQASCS

SMILES	EC50 (human GLP-1 R; Table 2) [nM]	EC50 (human GCG R; Table 2) [nM]	EC50 (human GIP R; [1]) [nM]	EC50 (human GIP R; [2]) [nM]	EC50 (human GLP-1 R; [3]) [nM]	pEC50 (human GCG R)	EC50 (human GIP R; [4]) [nM]	EC50 (human GIP R; [5]) [nM]	pEC50 (human GLP-1 R)	EC50 (human GCG R; [3]) [nM]
CC[C@H](C)[C@H](NC(=O)[C@H](CO)NC(=O)[C@H](Cc1ccc(O)cc1)NC(=O)[C@H](CC(=O)O)NC(=O)[C@H](CO)NC(=O)[C@@H](NC(=O)[C@H](Cc1ccccc1)NC(=O)[C@@H](NC(=O)CNC(=O)[C@H](CCC(N)=O)NC(=O)C(C)(C)NC(=O)[C@@H](N)Cc1ccc(O)cc1)[C@@H](C)O)[C@@H](C)O)C(=O)N[C@@H](Cc1ccc(O)cc1)C(=O)N[C@@H](CC(C)C)C(=O)N[C@@H](CC(=O)O)C(=O)N[C@@H](CO)C(=O)N[C@@H](CCCCN)C(=O)N[C@@H](C)C(=O)N[C@@H](C)C(=O)N[C@@H](Cc1c[nH]cn1)C(=O)N[C@@H](CC(=O)O)C(=O)N[C@@H](Cc1ccccc1)C(=O)N[C@H](C(=O)N[C@@H](CCC(=O)O)C(=O)N[C@@H](Cc1c[nH]c2ccccc12)C(=O)N[C@@H](CC(C)C)C(=O)N[C@@H](CC(C)C)C(=O)N[C@@H](CO)C(=O)N[C@@H](C)C(=O)NCC(=O)N1CCC[C@H]1C(=O)N[C@@H](CO)C(=O)N[C@@H](CO)C(=O)NCC(=O)N[C@@H](C)C(=O)N1CCC[C@H]1C(=O)N1CCC[C@H]1C(=O)N1CCC[C@H]1C(=O)N[C@@H](CO)C(N)=O)C(C)C [Compound 13] (HELM PEPTIDE1{Y.[Aib].Q.G.T.F.T.S.D.Y.S.I.Y.L.D.S.K.A.A.H.D.F.V.E.W.L.L.S.A.G.P.S.S.G.A.P.P.P.S.[am]}$$$$V2.0)	0.0099	0.24	0.083	0.01						
CCCCCCCCCCCCCCCC(=O)N[C@@H](CCC(=O)NCCCC[C@H](NC(=O)[C@H](CCC(=O)O)NC(=O)[C@H](CC(C)C)NC(=O)[C@H](Cc1ccc(O)cc1)NC(=O)[C@@H](NC(=O)[C@H](CO)NC(=O)[C@H](Cc1ccc(O)cc1)NC(=O)[C@H](CC(=O)O)NC(=O)[C@H](CO)NC(=O)[C@@H](NC(=O)[C@H](Cc1ccccc1)NC(=O)[C@@H](NC(=O)CNC(=O)[C@H](CCC(N)=O)NC(=O)C(C)(C)NC(=O)[C@@H](N)Cc1ccc(O)cc1)[C@@H](C)O)[C@@H](C)O)[C@@H](C)CC)C(=O)N[C@@H](CCCCN)C(=O)N[C@@H](C)C(=O)N[C@@H](C)C(=O)N[C@@H](CCCCN)C(=O)N[C@@H](CCC(=O)O)C(=O)N[C@@H](Cc1ccccc1)C(=O)N[C@H](C(=O)N[C@@H](CCC(=O)O)C(=O)N[C@@H](Cc1c[nH]c2ccccc12)C(=O)N[C@@H](CC(C)C)C(=O)N[C@@H](CC(C)C)C(=O)N[C@@H](CO)C(=O)N[C@@H](C)C(N)=O)C(C)C)C(=O)O [Compound 24] (HELM PEPTIDE1{Y.[Aib].Q.G.T.F.T.S.D.Y.S.I.Y.L.E.K.K.A.A.K.E.F.V.E.W.L.L.S.A.[am]}|PEPTIDE2{[CCCCCCCCCCCCCCCC(=O)[*:2]].[gGlu]}$PEPTIDE1,PEPTIDE2,16:R3-2:R2$$$V2.0)	0.091				0.091	9.55	0.1	0.1		
CC[C@H](C)[C@H](NC(=O)[C@H](CO)NC(=O)[C@H](Cc1ccc(O)cc1)NC(=O)[C@H](CC(=O)O)NC(=O)[C@H](CO)NC(=O)[C@@H](NC(=O)[C@H](Cc1ccccc1)NC(=O)[C@@H](NC(=O)CNC(=O)[C@H](CCC(N)=O)NC(=O)C(C)(C)NC(=O)[C@@H](N)Cc1ccc(O)cc1)[C@@H](C)O)[C@@H](C)O)C(=O)N[C@@H](Cc1ccc(O)cc1)C(=O)N[C@@H](CC(C)C)C(=O)N[C@@H](CC(=O)O)C(=O)N[C@@H](CCCCN)C(=O)N[C@@H](CCCCNC(=O)CC[C@H](NC(=O)CCCCCCCCCCCCCCCCC(=O)O)C(=O)O)C(=O)N[C@@H](C)C(=O)N[C@@H](CCC(N)=O)C(=O)N[C@@H](CCCNC(=N)N)C(=O)N[C@@H](C)C(=O)N[C@@H](Cc1ccccc1)C(=O)N[C@H](C(=O)N[C@@H](CCC(=O)O)C(=O)N[C@@H](Cc1c[nH]c2ccccc12)C(=O)N[C@@H](CC(C)C)C(=O)N[C@@H](CC(C)C)C(=O)N[C@@H](C)C(=O)N[C@@H](CCC(N)=O)C(=O)NCC(=O)N1CCC[C@H]1C(=O)N[C@@H](CO)C(=O)N[C@@H](CO)C(=O)NCC(=O)N[C@@H](C)C(=O)N1CCC[C@H]1C(=O)N1CCC[C@H]1C(=O)N1CCC[C@H]1C(=O)N[C@@H](CO)C(N)=O)C(C)C [Compound 34] (HELM PEPTIDE1{Y.[Aib].Q.G.T.F.T.S.D.Y.S.I.Y.L.D.K.K.A.Q.R.A.F.V.E.W.L.L.A.Q.G.P.S.S.G.A.P.P.P.S.[am]}|PEPTIDE2{[O=C(O)CCCCCCCCCCCCCCCCC(=O)[*:2]].[gGlu]}$PEPTIDE1,PEPTIDE2,17:R3-2:R2$$$V2.0)				0.007					11.18	0.11
CC(C)C[C@H](NC(=O)[C@H](CC(C)C)NC(=O)[C@H](Cc1c[nH]c2ccccc12)NC(=O)[C@H](CCC(=O)O)NC(=O)[C@@H](NC(=O)[C@H](Cc1ccccc1)NC(=O)[C@H](CC(=O)O)NC(=O)[C@H](CCCNC(=N)N)NC(=O)[C@H](C)NC(=O)[C@H](C)NC(=O)[C@H](CCCCN)NC(=O)[C@H](CO)NC(=O)[C@H](CC(=O)O)NC(=O)[C@H](CC(C)C)NC(=O)[C@H](Cc1ccc(O)cc1)NC(=O)[C@H](CCCCN)NC(=O)[C@H](CO)NC(=O)[C@H](Cc1ccc(O)cc1)NC(=O)[C@H](CC(=O)O)NC(=O)[C@H](CO)NC(=O)[C@@H](NC(=O)[C@H](Cc1ccccc1)NC(=O)[C@@H](NC(=O)CNC(=O)[C@H](CCC(N)=O)NC(=O)C(C)(C)NC(=O)[C@@H](N)Cc1ccc(O)cc1)[C@@H](C)O)[C@@H](C)O)C(C)C)C(=O)N[C@@H](CO)C(=O)N[C@@H](C)C(N)=O [Compound 6] (HELM PEPTIDE1{Y.[Aib].Q.G.T.F.T.S.D.Y.S.K.Y.L.D.S.K.A.A.R.D.F.V.E.W.L.L.S.A.[am]}$$$$V2.0)	0.0095					10.74	0.34	0.01		
CCCCCCCCCCCCCCCC(=O)N[C@@H](CCC(=O)NCCCC[C@H](NC(=O)[C@H](CO)NC(=O)[C@H](Cc1ccc(O)cc1)NC(=O)[C@H](CC(=O)O)NC(=O)[C@H](CO)NC(=O)[C@@H](NC(=O)[C@H](Cc1ccccc1)NC(=O)[C@@H](NC(=O)CNC(=O)[C@H](CCC(N)=O)NC(=O)C(C)(C)NC(=O)[C@@H](N)Cc1ccc(O)cc1)[C@@H](C)O)[C@@H](C)O)C(=O)N[C@@H](Cc1ccc(O)cc1)C(=O)N[C@@H](CC(C)C)C(=O)N[C@@H](CCC(=O)O)C(=O)N[C@@H](CCCCN)C(=O)N[C@@H](CCCCN)C(=O)N[C@@H](C)C(=O)N[C@@H](C)C(=O)N[C@@H](CCCCN)C(=O)N[C@@H](CCC(=O)O)C(=O)N[C@@H](Cc1ccccc1)C(=O)N[C@H](C(=O)N[C@@H](CCC(=O)O)C(=O)N[C@@H](Cc1c[nH]c2ccccc12)C(=O)N[C@@H](CC(C)C)C(=O)N[C@@H](CC(C)C)C(=O)N[C@@H](CO)C(=O)N[C@@H](C)C(N)=O)C(C)C)C(=O)O [Compound 25] (HELM PEPTIDE1{Y.[Aib].Q.G.T.F.T.S.D.Y.S.K.Y.L.E.K.K.A.A.K.E.F.V.E.W.L.L.S.A.[am]}|PEPTIDE2{[CCCCCCCCCCCCCCCC(=O)[*:2]].[gGlu]}$PEPTIDE1,PEPTIDE2,12:R3-2:R2$$$V2.0)	0.28	0.3	0.25	0.25	0.28					
CCCCCCCCCCCCCCCCCC(=O)N[C@@H](CCC(=O)NCCOCCOCC(=O)NCCOCCOCC(=O)NCCCC[C@H](NC(=O)[C@H](CCCCN)NC(=O)[C@H](CCC(=O)O)NC(=O)[C@H](CC(C)C)NC(=O)[C@H](C)NC(=O)[C@@H](NC(=O)[C@H](CO)NC(=O)[C@H](Cc1ccc(O)cc1)NC(=O)[C@H](CC(=O)O)NC(=O)[C@H](CO)NC(=O)[C@@H](NC(=O)[C@H](Cc1ccccc1)NC(=O)[C@@H](NC(=O)CNC(=O)[C@H](CCC(N)=O)NC(=O)C(C)(C)NC(=O)[C@@H](N)Cc1ccc(O)cc1)[C@@H](C)O)[C@@H](C)O)[C@@H](C)CC)C(=O)N[C@@H](C)C(=O)N[C@@H](CCC(N)=O)C(=O)N[C@@H](CCCNC(=N)N)C(=O)N[C@@H](C)C(=O)N[C@@H](Cc1ccccc1)C(=O)N[C@H](C(=O)N[C@@H](CCC(=O)O)C(=O)N[C@@H](Cc1c[nH]c2ccccc12)C(=O)N[C@@H](CC(C)C)C(=O)N[C@@H](CC(C)C)C(=O)N[C@@H](C)C(=O)N[C@@H](CCC(N)=O)C(=O)N[C@@H](CCCCN)C(N)=O)C(C)C)C(=O)O [Compound 46] (H-Y[Aib]QGTFTSDYSIALEKK([AEEA-AEEA-γGlu-Stearoyl])AQRAFVEWLLAQK-NH2)					0.16	9.89		0.011		
